Key:
human LPA1 = target: T1, human LPA1 (Homo sapiens, UniProt Q92633); assay: LPA1 calcium flux assay (HLPA1 Ca Flux); assay type: cell-based; conditions: Human LPA1 expressing CHO cells, stimulated with 10 nM LPA
T1 construct: the full-length cDNA for human LPA1 was obtained by PCR of the reverse transcription reaction; expressed in transfected cells
In short: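 CHO cells stably expressing cloned human LPA1, serum-starved overnight and loaded with Calcium 4 dye, were preincubated 30 min at room temperature with compound. Cells were then challenged with 10 nM LPA and intracellular Ca2+ measured; IC50 values came from titration curves.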

human LPA3 = target: T2, human LPA3 (Homo sapiens, UniProt Q9UBY5); assay: LPA3 calcium flux assay; assay type: cell-based; conditions: Human LPA3 expressing CHO cells, stimulated with 10 nM LPA; read-out: HLPA3 Ca Flux IC50
T2 construct: The full-length cDNA fragment for human LPA3 was obtained by PCR from the vector; expressed in transfected cells; cDNA from the Missouri S&T cDNA Resource Center
T2 sequence (Q9UBY5 1-353): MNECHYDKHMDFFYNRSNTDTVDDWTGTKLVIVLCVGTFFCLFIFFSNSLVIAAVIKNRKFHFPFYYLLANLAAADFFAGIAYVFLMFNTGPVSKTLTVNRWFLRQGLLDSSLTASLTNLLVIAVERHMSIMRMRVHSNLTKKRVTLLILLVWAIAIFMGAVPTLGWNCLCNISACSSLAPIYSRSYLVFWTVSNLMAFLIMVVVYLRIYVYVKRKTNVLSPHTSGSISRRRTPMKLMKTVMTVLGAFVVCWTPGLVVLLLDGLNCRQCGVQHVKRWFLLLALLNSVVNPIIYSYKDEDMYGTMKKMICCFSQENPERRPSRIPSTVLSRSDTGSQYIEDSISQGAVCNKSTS
In short: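 Stably transfected CHO cells, serum-starved overnight, loaded with Calcium 4 dye 1 h at 37 °C in HBSS/20 mM Hepes with 0.3% fatty-acid-free HSA. Compounds preincubated 30 min at room temperature, then cells stimulated with 10 nM LPA; intracellular Ca2+ read by fluorescence; IC50 from titration curves.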

Female C57BL/6 mice [1] = assay: Mouse carbon tetrachloride (CCl4)-induced liver fibrosis model; assay type: in vivo; conditions: for collagen deposition in the liver as compared to the untreated group: CCl4-induced liver fibrosis
Procedure: Female C57BL/6 mice (Harlan, 20-25 g) housed 4/cage are given free access to food and water and allowed to acclimate for at least 7 days prior to test initiation. After the habituation phase, mice receive CCl4 (0.5-1.0 ml/kg body weight) diluted in corn oil vehicle (100 μL volume) via i.p. injection twice a week for 4-6 weeks. (Higazi, A. A. et al., Clin Exp Immunol. 2008 April; 152(1):163-73. Epub 2008 Feb. 14.). Control mice receive an equivalent volume of corn oil vehicle only. Test compound or vehicle is delivered po, ip or sc daily. At the end of the study (4-6 weeks after first i.p. injection of CCl4), mice are sacrificed using inhaled isoflurane and blood is drawn via cardiac puncture for subsequent analysis of ALT/AST levels. The liver is harvested, and one half of the liver is frozen at −80° C. and the other half is fixed in 10% neutral buffered formalin for histological assessment of liver fibrosis using light microscopy (10× magnification). Liver tissue homogenates are analyzed for collagen levels using Sircol (Biocolor Ltd, UK). Fixed Liver tissue is stained using hematoxylin and eosin (H&E) and trichrome and liver fibrosis is determined by quantitative, computer-assisted densitometry of collagen in liver tissue sections using light microscopy. Plasma and liver tissue lysates are also analyzed for concentrations of inflammatory, pro-fibrotic and tissue injury biomarkers including transforming growth factor β1, hyaluronic acid, tissue inhibitor of metalloproteinase-1, matrix matelloproteinase-7, connective tissue growth factor and lactate dehydrogenase activity, using commercially available ELISA. The resulting data are plotted using Graphpad prism and statistical differences between groups determined.

Female C57BL/6 mice [2] = assay: Mouse unilateral ureteral obstruction kidney fibrosis model; assay type: in vivo
Procedure: Female C57BL/6 mice (Harlan, 20-25 g) housed 4/cage will be given free access to food and water and allowed to acclimate for at least 7 days prior to test initiation. After the habituation phase, mice undergo unilateral ureteral obstruction (UUO) surgery or sham to left kidney. Briefly, a longitudinal, upper left incision is performed to expose the left kidney. The renal artery is located and 6/0 silk thread is passed between the artery and the ureter. The thread is looped around the ureter and knotted 3 times insuring full ligation of ureter. The kidney is returned to abdomen, the abdominal muscle is sutured and the skin is stapled closed. Mice are returned to their cages and monitored daily for the duration of the experiment. Test compound or vehicle is delivered po, ip or sc daily. The route and frequency of dosing is based on previously determined pharmacokinetic properties. All animals are sacrificed using inhaled isoflurane 4, 8 or 14 days after UUO surgery. […] Kidney tissue homogenates are analyzed for collagen levels using Sircol (Biocolor Ltd, UK). Fixed kidney tissue is also stained using hematoxylin and eosin (H&E) and trichrome and kidney fibrosis is determined by quantitative, computer-assisted densitometry of collagen in […] tissue sections using light microscopy. […] The resulting data are plotted using Graphpad prism and statistical differences between groups determined.

T1 sequence (Q92633 whole entry): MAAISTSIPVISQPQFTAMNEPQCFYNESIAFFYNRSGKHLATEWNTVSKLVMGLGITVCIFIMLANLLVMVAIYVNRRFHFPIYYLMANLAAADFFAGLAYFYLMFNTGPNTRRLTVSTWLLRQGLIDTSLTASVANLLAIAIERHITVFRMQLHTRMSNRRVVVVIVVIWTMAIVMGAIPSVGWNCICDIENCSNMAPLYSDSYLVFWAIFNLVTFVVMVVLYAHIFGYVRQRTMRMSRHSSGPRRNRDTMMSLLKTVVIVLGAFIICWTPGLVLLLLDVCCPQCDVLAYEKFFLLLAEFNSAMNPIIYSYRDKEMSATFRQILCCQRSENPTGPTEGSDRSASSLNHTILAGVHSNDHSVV

Row | IC50 (human LPA1) [nM] | IC50 (human LPA3) [nM] | SMILES | effect on collagen deposition compared to pirfenidone (Female C57BL/6 mice [1]; 30 mg/kg, po, qd) | collagen deposition in the liver as compared to the untreated group (Female C57BL/6 mice [1]) | reduction of kidney fibrosis as compared to the untreated group (Female C57BL/6 mice [2])
1 | < 300 | 1000 to 50000 | Cc1noc(-c2ccc(-c3ccc(CC(=O)O)cc3)cc2)c1NC(=O)O[C@H](C)c1ccccc1Cl [Compound 1-88, (4′-{4-[(R)-1-(2-Chloro-phenyl)-ethoxycarbonylamino]-3-methyl-isoxazol-5-yl}-biphenyl-4-yl)-acetic acid] | same effect on collagen deposition as pirfenidone | significantly reduced | at least 20%
2 | < 300 | 1000 to 50000 | Cc1noc(-c2ccc(-c3ccc(CC(=O)O)cc3)cc2)c1NC(=O)O[C@H](C)c1ccccc1 [Compound 1-115] | – | significantly reduced | 55%

From patent US20110301142A1, “ANTAGONISTS OF LYSOPHOSPHATIDIC ACID RECEPTORS” (priority 2008, published 2011)
